The values that follow come from publication PMC10490123, “Synthesis and In Vitro Anticancer Activity of Novel 4-Aryl-3-(4-methoxyphenyl)-1-phenyl-1H-pyrazolo[3,4-b]pyridines Arrest Cell Cycle and Induce Cell Apoptosis by Inhibiting CDK2 and/or CDK9” (Molecules, 2023).

Entries after “also recorded” stand apart in the source; their conditions may differ.

Series [1] relates to HCT-116 cells. Nature of the series: Annexin V/PI apoptosis assay, HCT-116. Format: cell-based. To be noted: HCT-116, IC50 concentration, 24 h.
For series [2], the target named is T1, CDK2 (Homo sapiens, UniProt P24941).
T1 construct: purchased BPS Bioscience
Description: In vitro CDK2 enzyme inhibition assay (BPS Bioscience kit, chemiluminescence). Format: biochemical. The method, then:
(§1) The CDK in vitro inhibitory activity of 9a–h and 14a–h toward CDK2 and CDK9 was performed using CDK Assay Kit (BPS Bioscience, USA) at different dilutions of 30, 10, 3, 1, 0.3, 0.1, 0.03, and 0.01 µM, measuring the chemiluminescence using BioTek™ Synergy2 Microplate Reader (BioTek, Santa Clara, CA, USA).

Series [3] relates to Hela cancer cell line. Nature of the series: MTT cytotoxicity assay, cervical cancer Hela. It counts as cell-based. To be noted: Homo sapiens, mean ± SD of three experiments. Here is the method: (§2) The cytotoxicity of compounds 9a–h and 14a–h against three cell lines, namely, cervical cancer Hela, breast cancer MCF7, and colon HCT-116, compared with doxorubicin as a reference compound was performed using MTT assay. The cytotoxic concentration (IC50 in µM) is illustrated in Table 1.
(§3) Standard MTT colorimetric assay was applied to test the IC50 of compounds 9a–h and 14a–h against three cell lines, namely, cervical cancer Hela, breast cancer MCF7, and colon HCT-116, compared with doxorubicin as a reference compound with the typical reported methodology of MTT colorimetric assay.
In general terms: Tetrazolium assays rely on reduction of a dye to a coloured formazan, in cell work by metabolically active cells.

The test system of series [4] is MCF7 cells. Description: Cell cycle analysis (PI flow cytometry), MCF7. Format: cell-based. The method, then:
(§4) Cell cycle arrest of cervical cancer cells Hela, breast cancer cells MCF7, and colon cancer cells HCT-116 were assessed for compounds 9a and 14g at their IC50.
A general note: Flow cytometry measures light scatter and fluorescence of single cells or particles in a stream.

In series [5] the test system is HCT-116 cancer cell line. Nature of the series: MTT cytotoxicity assay, colon HCT-116. To be noted: Homo sapiens, mean ± SD of three experiments, read-out: IC50 HCT116. Format: cell-based. The method, then:
as §2, §3

Series [6] has as its system MCF7 cells. Description: Annexin V/PI apoptosis assay, MCF7. To be noted: MCF7, IC50 concentration, 24 h. Format: cell-based.
Series [7] can be described thus: MTT cytotoxicity on normal cell line WI-38. It counts as cell-based. To be noted: human, WI-38 normal cells, MTT assay, mean ± SD of three experiments, read-out: In Vitro Cytotoxicity on WI-38 (IC50).
In series [8] the test system is HCT-116 cells. Nature of the series: Cell cycle analysis (PI flow cytometry), HCT-116. Format: cell-based. To be noted: HCT-116, compound at its IC50. The method, then: as §4
Series [9] has as its target T2, CDK9 (Homo sapiens, UniProt P50750).
T2 construct: purchased BPS Bioscience
Description: In vitro CDK9 enzyme inhibition assay (BPS Bioscience kit, chemiluminescence). It counts as biochemical. The method, then:
as §1

The subject of series [10] is MCF7 cancer cell line. Nature of the series: MTT cytotoxicity assay, breast cancer MCF7. Format: cell-based. To be noted: Homo sapiens, mean ± SD of three experiments. The method, then:
as §2, §3

By IC50 is commonly meant the midpoint of a concentration-inhibition curve. As usually defined, the melting point is the temperature, or range, at which the solid turns liquid.

T2 sequence (P50750 whole entry): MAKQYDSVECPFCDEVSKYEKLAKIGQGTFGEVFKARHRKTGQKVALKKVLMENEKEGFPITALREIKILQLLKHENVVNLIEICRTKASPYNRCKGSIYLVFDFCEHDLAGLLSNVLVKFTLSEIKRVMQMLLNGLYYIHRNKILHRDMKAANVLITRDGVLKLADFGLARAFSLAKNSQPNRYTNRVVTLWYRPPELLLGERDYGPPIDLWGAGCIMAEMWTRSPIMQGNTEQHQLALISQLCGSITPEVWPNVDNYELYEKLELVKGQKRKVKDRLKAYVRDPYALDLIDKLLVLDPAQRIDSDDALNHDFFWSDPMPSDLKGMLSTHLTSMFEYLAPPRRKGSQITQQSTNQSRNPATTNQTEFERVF
T2 sequence (O60563 whole entry partner): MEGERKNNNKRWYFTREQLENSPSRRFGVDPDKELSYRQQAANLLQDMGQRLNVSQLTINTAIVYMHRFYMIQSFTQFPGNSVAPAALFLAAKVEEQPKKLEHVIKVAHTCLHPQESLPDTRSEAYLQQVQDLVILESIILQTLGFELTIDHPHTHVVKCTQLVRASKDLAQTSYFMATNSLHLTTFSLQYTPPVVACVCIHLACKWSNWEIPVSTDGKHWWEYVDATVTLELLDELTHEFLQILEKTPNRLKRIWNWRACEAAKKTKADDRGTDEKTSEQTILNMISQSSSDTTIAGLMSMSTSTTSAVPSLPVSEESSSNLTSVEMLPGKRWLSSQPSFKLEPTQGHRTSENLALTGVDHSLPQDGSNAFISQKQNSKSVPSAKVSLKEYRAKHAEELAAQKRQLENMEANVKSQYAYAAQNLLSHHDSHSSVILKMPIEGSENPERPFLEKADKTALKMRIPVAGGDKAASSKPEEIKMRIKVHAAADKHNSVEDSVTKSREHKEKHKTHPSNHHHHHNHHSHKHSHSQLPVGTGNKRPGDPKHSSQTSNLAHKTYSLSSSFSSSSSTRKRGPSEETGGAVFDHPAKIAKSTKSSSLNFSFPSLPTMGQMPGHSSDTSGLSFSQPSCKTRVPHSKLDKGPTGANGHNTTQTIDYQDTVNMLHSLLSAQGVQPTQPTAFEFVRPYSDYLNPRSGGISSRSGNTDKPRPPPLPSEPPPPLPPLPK

On to `COc1ccc(-c2nn(-c3ccccc3)c3nc(-c4ccccc4)c(C#N)c(-c4ccc(O)cc4)c23)cc1` [Compound 14g, 4-(4-Hydroxyphenyl)-3-(4-methoxyphenyl)-1,6-diphenyl-1H-pyrazolo[3,4-b]pyridine-5-carbonitrile], for which the melting point fell in the range of 295 to 297 °C. For the same compound, in series [1] (control 0.19), the “Apoptosis Late” value was 6.95%. Moreover, in series [1] (control 0.63), the “Apoptosis Early” value stood at 16.01%. Moreover, the Necrosis in [1] (control 1.69) turned out to be 3.75%. For the same compound, in series [1] (total equals early + late + necrosis, control 2.51), the “Apoptosis Total” value was 26.71%. Moreover, the IC50 in series [2] is 0.46 ± 0.024 µM. The compound further returned an IC50 in series [3] of 12.7 ± 1.53 µM. Also, the “Cell cycle Comment” value in series [4] (MCF7, compound at its IC50) is on record as “arresting cell cycle for MCF7 at G2/M phase; also recorded: cell growth arrest@ G2/M”. The “DNA Content %G2/M” value in series [4] (MCF7, compound at its IC50, control 14.86) came to 24.94%. In addition, the “DNA Content %S” value in [4] (MCF7, compound at its IC50, control 39.02) worked out at 33.81%. Moreover, the “DNA Content %G0-G1” value in [4] (MCF7, compound at its IC50, control 46.12) is on record as 41.25%. Also, the “DNA accumulation at G2/M phase relative to control” value in [4] (MCF7, control 14.86%) is given as 1.68 fold. Besides, in series [5], the IC50 turned out to be 1.98 ± 0.17 µM. The “Apoptosis Late” value in [6] (control 0.27) is on record as 7.55%. Moreover, the “Apoptosis Early” value in series [6] (control 0.44) was found to be 13.07%. This compound gave a Necrosis in series [6] (control 0.78) of 2.27%. Also, the “Apoptosis Total” value in [6] (total equals early + late + necrosis, control 1.49) is reported as 22.89%. For the same compound, the IC50 in [7] worked out at 21.8 ± 2.96 µM. The “Cell cycle Comment” value in series [8] is reported as “arresting cell cycle at S phase; also recorded: cell growth arrest@ S”. Moreover, the “DNA Content %G2/M” value in series [8] (control 17.64) turned out to be 13.24%. Further, the “DNA Content %S” value in [8] (control 26.49) is reported as 34.82%. Further, in series [8] (control 55.87), the “DNA Content %G0-G1” value is reported as 51.94%. Besides, the IC50 in series [9] was determined as 0.801 ± 0.041 µM. The same compound had an IC50 in series [10] of 4.66 ± 0.38 µM.
